Laboratory results: patent US11655239B2 (SHANGHAI INSTITUTE OF MATERIAL MEDICA, CHINESE ACADEMY OF …, priority 2019, dated 2023)

Molecular target: EGFR (Homo sapiens (Human), UniProt P00533)
Assay: Enzyme selectivity test (ELISA), EGFR
Assay type: biochemical
Protocol: 1) Enzyme reaction substrate Poly(Glu, Tyr) 4:1 was diluted to 20 μg/mL with potassium-free PBS (10 mM sodium phosphate buffer, 150 mM NaCl, pH 7.2-7.4), and the microtiter plate was coated with 125 μL/well and placed at 37° C. for 12-16 hours of reaction. The liquid in the well was discard. The plate was washed three times with T-PBS (potassium-free PBS containing 0.1% Tween-20, 200 μL/well), 5 minutes each time. The ELISA plate was dried in an oven at 37° C. for 1 to 2 hours.
2) Reaction buffer (50 mM HEPES pH 7.4, 50 mM MgCl2, 0.5 mM MnCl2, 0.2 mM Na3VO4, 1 mM DTT) diluted ATP solution (49 μL) was added to each well, 1 μL of the compound to be tested was added to each well, and then 50 μL of DDR2 kinase domain recombinant protein diluted in the reaction buffer was added to start the reaction. Two control wells without ATP were set in each experiment. The plate placed on a shaker (100 rpm) at 37° C. for 1 hour of reaction. The liquid in the well was discarded and the plate was washed three times with T-PBS.
3) Antibody PY99 dilution solution (the antibody was diluted 1:500 with T-PBS containing BSA 5 mg/mL) was added at 100 μL/well, and shaken on a shaker at 37° C. for 0.5 hour of reaction. The liquid in the well was discarded and the plate was washed three times with T-PBS.
4) Horseradish peroxidase labeled goat anti-murine secondary antibody dilution solution (the antibody is diluted 1:2000 with T-PBS containing BSA 5 mg/ml) was added at 100 μL/well, and shaken on a shaker at 37° C. for 0.5 hour of reaction. The liquid in the well was discarded and the plate was washed three times with T-PBS.
5) 2 mg/ml of OPD color developing solution [diluted with 0.1 M citric acid-sodium citrate buffer (pH=5.4) containing 0.03% H2O2] was added at 100 μL/well and reacted for 1 to 10 minutes at 25° C. in the dark.
6) 2M H2SO4 was added at 50 μL/well to stop the reaction, and a tunable wavelength microplate reader VERSAmax was used for reading at a wavelength of 490 nm.
The IC50 value was obtained by four-parameter regression using the software that came with the microplate reader. […]

Chain of EGFR (P00533 25-1210, species assumed): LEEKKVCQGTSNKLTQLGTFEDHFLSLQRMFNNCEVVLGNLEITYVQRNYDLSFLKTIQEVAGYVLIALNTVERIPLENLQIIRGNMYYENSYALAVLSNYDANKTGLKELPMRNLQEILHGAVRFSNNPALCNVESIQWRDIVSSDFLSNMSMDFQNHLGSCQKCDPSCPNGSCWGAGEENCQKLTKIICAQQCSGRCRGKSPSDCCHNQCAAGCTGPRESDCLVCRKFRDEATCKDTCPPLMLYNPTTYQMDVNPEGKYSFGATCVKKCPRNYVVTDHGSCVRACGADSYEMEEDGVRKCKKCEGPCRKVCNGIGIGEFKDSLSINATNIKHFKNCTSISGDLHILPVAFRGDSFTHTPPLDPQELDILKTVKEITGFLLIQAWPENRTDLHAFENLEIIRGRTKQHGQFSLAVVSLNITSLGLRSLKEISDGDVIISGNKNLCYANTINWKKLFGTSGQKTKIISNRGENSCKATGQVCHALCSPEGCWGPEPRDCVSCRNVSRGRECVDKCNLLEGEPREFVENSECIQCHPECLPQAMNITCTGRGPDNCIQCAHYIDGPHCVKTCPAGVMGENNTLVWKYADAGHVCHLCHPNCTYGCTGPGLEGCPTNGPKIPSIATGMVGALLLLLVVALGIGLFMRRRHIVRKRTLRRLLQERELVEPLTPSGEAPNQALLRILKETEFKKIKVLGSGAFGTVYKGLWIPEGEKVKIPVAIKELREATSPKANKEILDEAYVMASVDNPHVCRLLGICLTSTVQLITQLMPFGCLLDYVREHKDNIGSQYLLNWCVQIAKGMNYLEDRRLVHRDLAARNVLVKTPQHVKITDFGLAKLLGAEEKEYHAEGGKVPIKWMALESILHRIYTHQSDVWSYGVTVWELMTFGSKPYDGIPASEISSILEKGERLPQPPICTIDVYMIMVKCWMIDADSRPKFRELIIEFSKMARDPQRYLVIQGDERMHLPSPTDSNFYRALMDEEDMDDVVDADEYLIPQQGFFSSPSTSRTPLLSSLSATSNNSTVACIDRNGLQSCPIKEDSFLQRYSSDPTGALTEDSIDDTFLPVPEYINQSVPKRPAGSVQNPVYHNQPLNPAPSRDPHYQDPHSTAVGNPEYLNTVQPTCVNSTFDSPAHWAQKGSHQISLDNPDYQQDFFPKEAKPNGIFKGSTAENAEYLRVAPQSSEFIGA

For O=C(Nc1cccc(C(F)(F)F)c1)c1ccc(C2CC2)c(-c2ccc3nc(Nc4cnn(C5CC5)c4)ncc3c2)c1 [Compound S15, 4-cyclopropyl-3-(2-((1-cyclopropyl-1H-pyrazol-4-yl)amino)quinazolin-6-yl)-N-(3-(trifluoromethyl)phenyl)benzamide], the IC50 was over 1000 nM.
